# Assay results published in patent publication US7482489B2, “Enantiomerically pure (R)-albuterol dibenzoyltartrate and protected analogs thereof” (Teva Pharmaceutical Fine Chemicals S.r.l., priority 2004, dated 2009).
# Structures can show the parent of a compound that is named as a salt.
# Columns and labels:
# Type in all cases: physicochemical
# [1] = Stability of levalbuterol hydrochloride at 70° C. (HPLC area %, appearance)
# Protocol: [table] […] At lower pH values, greater levalbuterol hydrochloride degradation occurred. […] Yields were determined by mass. Chemical purity was determined by HPLC. […] The mobile phase comprised a phosphate buffer at pH 3.00 and acetonitrile in a gradient. The eluent flow was 1.0 ml/min. The detector was set to a wavelength of 230 nm, using an HPLC Hewlett Packard VWD detector HP 1100, as a detector.
# [2] = Stability of levalbuterol hydrochloride at different storage temperatures (HPLC area %)
# Protocol: At lower pH values, greater levalbuterol hydrochloride degradation occurred. […] [table] […] The percentage LVB, Compound B, or Compound A is relative to the total amount of sample at time=T. Yields were determined by mass. Chemical purity was determined by HPLC. […] The mobile phase comprised a phosphate buffer at pH 3.00 and acetonitrile in a gradient. The eluent flow was 1.0 ml/min. The detector was set to a wavelength of 230 nm, using an HPLC Hewlett Packard VWD detector HP 1100, as a detector.
# [3] = Stability comparison of sample at 40° C. and 75% RH (HPLC area %)
# Protocol: Yields were determined by mass. Chemical purity was determined by HPLC. The HPLC analysis was conducted using a column POLARIS C18-A 250 mm×4.6 mm×[…] (cat n.2002-250×046) and a mobile phase. The mobile phase comprised a phosphate buffer at pH 3.00 and acetonitrile in a gradient. The eluent flow was 1.0 ml/min. The detector was set to a wavelength of 230 nm, using an HPLC Hewlett Packard VWD detector HP 1100, as a detector.
# Using the products of the previous examples, a stability study at 40° C. and 75% RH was carried out.
# [4] = 1 week at 70° C., Hydrochloride
# [5] = T = 0, before storage at 70° C., Hydrochloride
# [6] = 3 months at 40° C. and 75% RH, Hydrochloride
# [7] = 6 months at 40° C. and 75% RH, Hydrochloride
# [8] = T = 0, 40° C. and 75% RH study, Hydrochloride
smiles,measurement,setting,value
"CC(C)(C)NC[C@H](O)c1ccc(O)c(CO)c1 [Example 21, Levalbuterol Hydrochloride]",Compound A,[1]; [4],0.72%
same,Compound B,[1]; [4],0.26%
same,Compound C,[1]; [4],0.18%
same,LVB (levalbuterol hydrochloride),[1]; [4],97.1%
same,Sample (appearance),[1]; [4],Pale yellow
same,Total Unknown Impurities,[1]; [4],1.21%
same,Compound C,"[1]; T = 0, before storage at 70° C.",0.15%
same,Compound A,[1]; [5],0.24%
same,Compound B,[1]; [5],0.18%
same,LVB (levalbuterol hydrochloride),[1]; [5],99.4%
same,Sample (appearance),[1]; [5],White solid^c
"CC(C)(C)NC[C@H](O)c1ccc(O)c(CO)c1 [levalbuterol hydrochloride, (R)-α^1-[[(1,1-dimethylethyl)amino]methyl]-4-hydroxy-1,3-benzenedimethanol hydrochloride]",Sample (appearance),[1]; [5],White solid
same,Compound A,"[2]; 1 month, 25° C.",0.03%
same,Compound B,"[2]; 1 month, 25° C.",0.02%
same,LVB,"[2]; 1 month, 25° C.",99.87%
same,Total Unknown Impurities,"[2]; 1 month, 25° C.",0.08%
same,Compound A,"[2]; 2 months, 25° C.",0.04%
same,Compound B,"[2]; 2 months, 25° C.",0.02%
same,LVB,"[2]; 2 months, 25° C.",99.82%
same,Total Unknown Impurities,"[2]; 2 months, 25° C.",0.12%
same,Compound A,"[2]; 20 hrs, 40-45° C.",0.11%
same,Compound B,"[2]; 20 hrs, 40-45° C.",0.30%
same,LVB,"[2]; 20 hrs, 40-45° C.",99.30%
same,Total Unknown Impurities,"[2]; 20 hrs, 40-45° C.",0.29%
same,Compound A,"[2]; 20 hrs, 55-60° C.",0.23%
same,Compound B,"[2]; 20 hrs, 55-60° C.",0.45%
same,LVB,"[2]; 20 hrs, 55-60° C.",98.17%
same,Total Unknown Impurities,"[2]; 20 hrs, 55-60° C.",1.15%
same,Compound A,"[2]; 32 hrs, 55-60° C.",0.26%
same,Compound B,"[2]; 32 hrs, 55-60° C.",0.45%
same,LVB,"[2]; 32 hrs, 55-60° C.",97.9%
same,Total Unknown Impurities,"[2]; 32 hrs, 55-60° C.",1.39%
same,Compound A,"[2]; 10 days, 25° C.",0.02%
same,Compound B,"[2]; 10 days, 25° C.",0.01%
same,LVB,"[2]; 10 days, 25° C.",99.88%
same,Total Unknown Impurities,"[2]; 10 days, 25° C.",0.09%
same,Compound A,"[2]; T = 0, 20° C., MeOH 6700 ppm",0.028%
same,Compound B,"[2]; T = 0, 20° C., MeOH 6700 ppm",0.035%
same,LVB,"[2]; T = 0, 20° C., MeOH 6700 ppm",99.84%
same,Total Unknown Impurities,"[2]; T = 0, 20° C., MeOH 6700 ppm",0.097%
same,Compound A,"[2]; T = 0, 25° C., MeOH 2090 ppm",0.02%
same,Compound B,"[2]; T = 0, 25° C., MeOH 2090 ppm",0.01%
same,LVB,"[2]; T = 0, 25° C., MeOH 2090 ppm",99.90%
same,Total Unknown Impurities,"[2]; T = 0, 25° C., MeOH 2090 ppm",0.07%
"CC(C)(C)NC[C@H](O)c1ccc(O)c(CO)c1 [Example 16, Levalbuterol Hydrochloride]",Comp. C,[3]; 3 months at 40° C. and 75% RH,0.04%
same,Comp. A,[3]; [6],0.06%
same,Comp. B,[3]; [6],0.09%
same,LVB,[3]; [6],99.75%
same,Total Unknown Impurities,[3]; [6],0.08%
same,Comp. C,[3]; 6 months at 40° C. and 75% RH,0.05%
same,Comp. A,[3]; [7],0.07%
same,Comp. B,[3]; [7],0.13%
same,LVB,[3]; [7],99.72%
same,Comp. A,[3]; [8],0.01%
same,Comp. B,[3]; [8],0.02%
same,LVB,[3]; [8],99.86%
same,Total Unknown Impurities,[3]; [8],0.11%
"CC(C)(C)NC[C@H](O)c1ccc(O)c(CO)c1 [Example 12, Levalbuterol Hydrochloride]",Comp. A,[3]; [6],0.02%
same,Comp. B,[3]; [6],0.06%
same,LVB,[3]; [6],99.85%
same,Total Unknown Impurities,[3]; [6],0.07%
same,Total Unknown Impurities,[3]; 6 months at 40° C. and 75% RH,0.09%
same,Comp. A,[3]; [7],0.02%
same,Comp. B,[3]; [7],0.06%
same,LVB,[3]; [7],99.83%
same,Comp. A,[3]; [8],0.02%
same,Comp. B,[3]; [8],0.01%
same,LVB,[3]; [8],99.91%
same,Total Unknown Impurities,[3]; [8],0.06%
"CC(C)(C)NC[C@H](O)c1ccc(O)c(CO)c1 [Example 8, Levalbuterol Hydrochloride]",Comp. A,[3]; [6],0.03%
same,Comp. B,[3]; [6],0.07%
same,LVB,[3]; [6],99.85%
same,Total Unknown Impurities,[3]; [6],0.05%
same,Total Unknown Impurities,[3]; 6 months at 40° C. and 75% RH,0.09%
same,Comp. A,[3]; [7],0.03%
same,Comp. B,[3]; [7],0.07%
same,LVB,[3]; [7],98.81%
same,Comp. A,[3]; [8],0.01%
same,Comp. B,[3]; [8],0.03%
same,LVB,[3]; [8],99.87%
same,Total Unknown Impurities,[3]; [8],0.09%
